Measured values published in ChEMBL document CHEMBL1201862, “PubChem BioAssay data set” (2004).
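Dose response: 5 concentrations. Exposure: 48 h. Format: 96-well plates. Endpoint: linear interpolation; highest concentration if not reached. GI50: concentration for 50% inhibition of growth.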 Activity calls are given as the source filed them. No stated cut-off is given here; in the data, active = GI50 up to about 1.1 µM and inactive = higher.

Legend:
Experiment in all cases: inhibition of tumour cell growth, NCI panel, 48 h
MDA-MB-231 = system: MDA-MB-231
SK-OV-3 = system: SK-OV-3
ACHN = system: ACHN
HCT-116 = system: HCT-116
RXF 393 = system: RXF 393
SR = system: SR
LOX IMVI = system: LOX IMVI
OVCAR-3 = system: OVCAR-3
NCI/ADR-RES = system: NCI/ADR-RES
PC-3 = system: PC-3
MOLT-4 = system: MOLT-4
EKVX = system: EKVX
SF-268 = system: SF-268
OVCAR-8 = system: OVCAR-8
KM12 = system: KM12
RPMI-8226 = system: RPMI-8226
SK-MEL-5 = system: SK-MEL-5
SF-539 = system: SF-539
COLO 205 = system: COLO 205
HCC 2998 = system: HCC 2998

| Compound | GI50 (MDA-MB-231) | GI50 (SK-OV-3) | GI50 (ACHN) | GI50 (HCT-116) | GI50 (RXF 393) | GI50 (SR) | GI50 (LOX IMVI) | GI50 (OVCAR-3) | GI50 (NCI/ADR-RES) | GI50 (PC-3) | GI50 (MOLT-4) | GI50 (EKVX) | GI50 (SF-268) | GI50 (OVCAR-8) | GI50 (KM12) | GI50 (RPMI-8226) | GI50 (SK-MEL-5) | GI50 (SF-539) | GI50 (COLO 205) | GI50 (HCC 2998) |
| --- | --- | --- | --- | --- | --- | --- | --- | --- | --- | --- | --- | --- | --- | --- | --- | --- | --- | --- | --- | --- |
| COc1ccc(N2C(=O)C3ON(Cc4ccc(CC(N)=O)cc4)C(c4c5ccccc5c(C)c5ccccc45)C3C2=O)cc1 (centres undefined) | 36.5 µM (inactive) | > 100 µM (inactive) | 21.5 µM (inactive) | 17.9 µM (inactive) | 14.2 µM (inactive) | 12.6 µM (inactive) | 26.4 µM (inactive) | 25.4 µM (inactive) | 35.8 µM (inactive) | 21.6 µM (inactive) | 2.2 µM (inactive) | 20.9 µM (inactive) | 38.7 µM (inactive) | 27 µM (inactive) | 12.1 µM (inactive) | – | – | – | – | – |
| CN1CCc2c(sc3ncn(Nc4ccc(F)cc4)c(=N)c23)C1 | > 100 µM (inactive) | > 100 µM (inactive) | > 100 µM (inactive) | > 100 µM (inactive) | > 100 µM (inactive) | > 100 µM (inactive) | > 100 µM (inactive) | > 100 µM (inactive) | > 100 µM (inactive) | > 100 µM (inactive) | > 100 µM (inactive) | > 100 µM (inactive) | > 100 µM (inactive) | > 100 µM (inactive) | > 100 µM (inactive) | > 100 µM (inactive) | > 100 µM (inactive) | > 100 µM (inactive) | – | – |
| COc1cc(S(=O)(=O)Nc2ccc(-c3csc(N4C(=O)C(Cl)C4c4ccccc4)n3)cc2)ccc1Cl (centres undefined) | – | > 100 µM (inactive) | 60 µM (inactive) | 59.6 µM (inactive) | 10.7 µM (inactive) | 3.06 µM (inactive) | 2.14 µM (inactive) | > 100 µM (inactive) | > 100 µM (inactive) | > 100 µM (inactive) | 27 µM (inactive) | 31.9 µM (inactive) | 33.9 µM (inactive) | 20.1 µM (inactive) | 44.2 µM (inactive) | 31.4 µM (inactive) | 25.2 µM (inactive) | 32.7 µM (inactive) | 37.9 µM (inactive) | – |
| C[C@]12CC[C@H](O)CC1=CC[C@@H]1[C@@H]2CC[C@]2(C)C(=N/N)/C(=N\O)C[C@@H]12 | 32.7 µM (inactive) | 76 µM (inactive) | > 100 µM (inactive) | 43.4 µM (inactive) | > 100 µM (inactive) | 7.78 µM (inactive) | 57 µM (inactive) | > 100 µM (inactive) | > 100 µM (inactive) | > 100 µM (inactive) | 16.4 µM (inactive) | 74.1 µM (inactive) | 59.7 µM (inactive) | > 100 µM (inactive) | 38.2 µM (inactive) | > 100 µM (inactive) | > 100 µM (inactive) | > 100 µM (inactive) | 40 µM (inactive) | – |
| COC1=CC(=O)c2c(c(COC(C)=O)cn2C)C1=O | 0.389 µM (active) | 0.119 µM (active) | 0.0306 µM (active) | 0.0347 µM (active) | 0.0809 µM (active) | 0.211 µM (active) | 0.0887 µM (active) | 0.158 µM (active) | 0.061 µM (active) | 0.309 µM (active) | 0.305 µM (active) | 0.279 µM (active) | 0.173 µM (active) | 0.122 µM (active) | 0.0962 µM (active) | 0.211 µM (active) | 0.118 µM (active) | 0.138 µM (active) | 0.0282 µM (active) | – |
| O=S(=O)(CC(O)C(Cl)(Cl)Cl)NNc1ccccc1 (centres undefined) | > 100 µM (inactive) | > 100 µM (inactive) | > 100 µM (inactive) | > 100 µM (inactive) | > 100 µM (inactive) | > 100 µM (inactive) | > 100 µM (inactive) | > 100 µM (inactive) | > 100 µM (inactive) | > 100 µM (inactive) | > 100 µM (inactive) | > 100 µM (inactive) | > 100 µM (inactive) | > 100 µM (inactive) | > 100 µM (inactive) | > 100 µM (inactive) | 74.1 µM (inactive) | > 100 µM (inactive) | 75 µM (inactive) | – |
| CC/C(=C\c1ccc(OC)cc1)c1ccc(OC)cc1 | > 100 µM (inactive) | > 100 µM (inactive) | > 100 µM (inactive) | > 100 µM (inactive) | 60.8 µM (inactive) | – | 70.6 µM (inactive) | > 100 µM (inactive) | > 100 µM (inactive) | > 100 µM (inactive) | 52.5 µM (inactive) | > 100 µM (inactive) | > 100 µM (inactive) | > 100 µM (inactive) | > 100 µM (inactive) | 86.3 µM (inactive) | 30.1 µM (inactive) | > 100 µM (inactive) | > 100 µM (inactive) | > 100 µM (inactive) |
| Cc1c([N+](=O)[O-])ccc2c(NCCCN(C)C)ccnc12 | 23 µM (inactive) | 39.8 µM (inactive) | 30.8 µM (inactive) | 15.2 µM (inactive) | 23.9 µM (inactive) | 29.2 µM (inactive) | 15.7 µM (inactive) | 21 µM (inactive) | 28.2 µM (inactive) | 16.4 µM (inactive) | > 100 µM (inactive) | – | 37 µM (inactive) | 25.2 µM (inactive) | 16.7 µM (inactive) | 67.6 µM (inactive) | 16 µM (inactive) | 16.8 µM (inactive) | 12.2 µM (inactive) | – |
| COc1ccc(CC(CO)NC(=O)OCc2ccccc2)cc1Oc1ccc(CC(CO)NC(=O)OCc2ccccc2)cc1 (centres undefined) | 13.1 µM (inactive) | 13.4 µM (inactive) | – | 15.1 µM (inactive) | – | 26.7 µM (inactive) | – | 13.1 µM (inactive) | – | 11.2 µM (inactive) | 3.43 µM (inactive) | 3.85 µM (inactive) | 7.82 µM (inactive) | – | 12.2 µM (inactive) | 6.27 µM (inactive) | 5.09 µM (inactive) | – | 23.1 µM (inactive) | 21.2 µM (inactive) |
| CCC1=C(CC2NCCc3cc(OC)c(OC)cc32)CC2c3ccccc3CCN2C1 (centres undefined) | 16.8 µM (inactive) | > 100 µM (inactive) | 31.5 µM (inactive) | 8.55 µM (inactive) | 19.8 µM (inactive) | 10.1 µM (inactive) | 13.5 µM (inactive) | 33.4 µM (inactive) | 29.6 µM (inactive) | 16.2 µM (inactive) | 15.3 µM (inactive) | 22.2 µM (inactive) | 31.5 µM (inactive) | 37.5 µM (inactive) | 23.7 µM (inactive) | 13.8 µM (inactive) | 14.8 µM (inactive) | 9.55 µM (inactive) | 10.2 µM (inactive) | – |
| CN(C)/N=N/c1ccc2[nH]c(=O)[nH]c2c1 | > 100 µM (inactive) | > 100 µM (inactive) | > 100 µM (inactive) | > 100 µM (inactive) | > 100 µM (inactive) | – | > 100 µM (inactive) | > 100 µM (inactive) | > 100 µM (inactive) | > 100 µM (inactive) | – | > 100 µM (inactive) | > 100 µM (inactive) | > 100 µM (inactive) | > 100 µM (inactive) | > 100 µM (inactive) | > 100 µM (inactive) | > 100 µM (inactive) | > 100 µM (inactive) | > 100 µM (inactive) |
| CCOC(=O)c1nc2ccc(C(F)(F)F)cc2nc1Oc1cc(OC)c(OC)c(OC)c1 | 87.7 µM (inactive) | > 100 µM (inactive) | 8.17 µM (inactive) | 50.9 µM (inactive) | 28.7 µM (inactive) | – | > 100 µM (inactive) | > 100 µM (inactive) | 30.9 µM (inactive) | > 100 µM (inactive) | > 100 µM (inactive) | 35.3 µM (inactive) | 35.6 µM (inactive) | 38.3 µM (inactive) | 40.2 µM (inactive) | > 100 µM (inactive) | 23.1 µM (inactive) | 62.2 µM (inactive) | 17.7 µM (inactive) | – |
| CCOc1ccccc1/C=C(/C#N)C(N)=O | > 100 µM (inactive) | > 100 µM (inactive) | > 100 µM (inactive) | 78.3 µM (inactive) | > 100 µM (inactive) | 23.9 µM (inactive) | > 100 µM (inactive) | > 100 µM (inactive) | > 100 µM (inactive) | > 100 µM (inactive) | 83.9 µM (inactive) | > 100 µM (inactive) | > 100 µM (inactive) | > 100 µM (inactive) | > 100 µM (inactive) | > 100 µM (inactive) | 78.3 µM (inactive) | 70.6 µM (inactive) | > 100 µM (inactive) | – |
| CO[C@](C(=O)OC[C@H]1[C@@H](COC(C)=O)[C@@H]2O[C@H]1c1cc3c(cc12)OCO3)(c1ccccc1)C(F)(F)F | 30.8 µM (inactive) | 89.7 µM (inactive) | – | 13.6 µM (inactive) | – | 21.2 µM (inactive) | – | 27 µM (inactive) | – | 19.4 µM (inactive) | 19.4 µM (inactive) | 27 µM (inactive) | 30.7 µM (inactive) | – | 14.2 µM (inactive) | 3.68 µM (inactive) | 32.9 µM (inactive) | – | 28.6 µM (inactive) | 23.8 µM (inactive) |
| O=C(NCCCN1CCN(CCCNC(=O)Nc2cccc3ccccc23)CC1)Nc1cccc2ccccc12 | 2.25 µM (inactive) | – | 16.3 µM (inactive) | 14.4 µM (inactive) | 11.1 µM (inactive) | – | 8.49 µM (inactive) | 13.6 µM (inactive) | 84.9 µM (inactive) | 9.93 µM (inactive) | – | 9.82 µM (inactive) | 17.3 µM (inactive) | 18.7 µM (inactive) | 19.3 µM (inactive) | 17.3 µM (inactive) | 16.6 µM (inactive) | 18 µM (inactive) | 15.7 µM (inactive) | 2.29 µM (inactive) |
